{"source": "patent US8431378B2", "about": "“Aminotransferase, gene encoding the same, and methods of using them” (Kaneka Corporation, priority 2005, dated 2013)", "key": {"[1]": {"tested_on": "purified enzyme MTA (aminotransferase)", "experiment": "Specificity for amino donor, 7-methoxy-2-tetralone as amino acceptor (Example 3)", "assay_type": "biochemical, Pseudomonas fluorescens KNK08-18", "settings": "amino donor varied, 14 mM (racemic 28 mM); acceptor 14 mM 7-methoxy-2-tetralone; 30° C., 1 hour; activity with (S)-α-phenethylamine is 100", "experimental": "In 20 μL of the purified Enzyme, 380 μL of a 0.1M potassium phosphate buffer containing 14 mM of 7-methoxy-2-tetralone and 14 mM (in case of the racemic amine compound, 28 mM)) of an amine compound of various type was added. After the mixture was reacted at 30° C. for 1 hour, 20 μL of 3N hydrochloric acid was added therein to stop the reaction. The reaction solution thus obtained was analyzed via high-performance liquid chromatography so as to quantitatively analyze 7-methoxy-2-aminotetralin thus obtained. Thereby, the amino group transfer activities with the various amino compounds were analyzed.\n[Analysis Conditions of High-Performance Liquid Chromatography]\n• Column: Cosmosil 5C8-MS (Nacalai Tesque Inc.) • Carrier: 30 mM potassium phosphate buffer (pH 2.5)/acetonitrile/methanol=4/1/1 (by volume) • Flow Rate: 0.9 mL/min • Detection: 254 nm"}, "[2]": {"tested_on": "purified enzyme MTA (aminotransferase)", "experiment": "Specificity for amino donor, pyruvic acid as acceptor, dabsylated alanine quantified (Example 4)", "assay_type": "biochemical, Pseudomonas fluorescens KNK08-18", "settings": "for Amino group transfer activity as amino donor (in words): acceptor pyruvic acid; for Relative Activity (%): amino donor varied, 14 mM, acceptor 14 mM pyruvic acid, pH 7.5, 30° C., 1 hour, activity with (S)-α-phenethylamine is 100", "experimental": "(§1) The amino group transfer activity measurement is carried out as follows: Firstly, 20 μL of a purified enzyme solution having a protein concentration of 0.2 mg/mL is added to 380 μL of a substrate solution having the following composition. After carrying out reaction at 30° C. for 1 hour therein, 20 μL of 3N hydrochloric acid is added therein to stop the reaction. Then, into 20 μL of the resultant reaction mixture, a 0.2M sodium carbonate aqueous solution of 80 μL and an acetone solution of 200 μL containing dabsyl chloride by 3.3 mg/mL are added. Then, the resultant mixture is reacted at 70° C. for 10 min. After 20 μL of acetic acid is added therein with stirring. The reaction mixture thus obtained is analyzed by high-performance liquid chromatography thereby to quantitatively analyze dabsylated alanine.\nas §1, with “purified enzyme obtained in Example 1 was analyzed in terms of its reactivity to typical substrates of ω-amino acid transaminase.” for “amino group transfer activity measurement is carried out as follows:”, “was” for “is”, “[…]” for “380 μL”, “were” for “are”, “alanine. Results of the analysis are shown in Table 2, which the amino group transfer activities are shown as relative activities where the activity with (S)-α-phenethylamine as the amino donor is 100.” for “alanine.”\n(§2) [Substrate Solution Composition]\n(§3) Pyridoxal phosphate 0.02 mM\n(§4) Potassium Phosphate Buffer (pH 7.5) 0.1M\n(§5) [High-Performance Liquid Chromatography Analysis Conditions]\n(§6) Column: Deverosil ODS-HG-3 (Nomura Chemical Co., Ltd.)\n(§7) Carrier: Acetonitrile/0.045M acetate buffer (pH 4.1)=35/65 (by volume)"}, "MTA (present invention)": {"tested_on": "MTA (present invention)", "experiment": "Substrate specificity, comparison with ω-amino acid transaminase (Example 7), Enzyme A", "assay_type": "biochemical, Pseudomonas fluorescens KNK08-18", "settings": "for Reactivity as amino donor (in words): Enzyme A (MTA), receptor pyruvic acid or 2-ketoglutaric acid; for Relative activity, Enzyme A: donor 14 mM, activity with (S)-α-phenethylamine is 100", "experimental": "The purified enzyme obtained in Example 1 was analyzed in terms of its reactivity to typical substrates of ω-amino acid transaminase. Firstly, 20 μL of a purified enzyme solution having a protein concentration of 0.2 mg/mL was added to 380 μL of a substrate solution having the following composition. After carrying out reaction at 30° C. for 1 hour therein, 20 μL of 3N hydrochloric acid was added therein to stop the reaction. Then, into 20 μL of the resultant reaction mixture, a 0.2M sodium carbonate aqueous solution of 80 μL and an acetone solution of 200 μL containing dabsyl chloride by 3.3 mg/mL were added. Then, the resultant mixture was reacted at 70° C. for 10 min. After 20 μL of acetic acid was added therein with stirring. The reaction mixture thus obtained was analyzed by high-performance liquid chromatography thereby to quantitatively analyze dabsylated alanine or […]. Results of the analysis are shown in Table 5, in which the relative activities are shown where the activity with (S)-α-phenethylamine as the amino donor is 100. In Table 5, the values of activities of ω-amino acid:pyruvic acid transaminase and 4-amino butyric acid: 2-ketoglutaric acid transaminase are from the literatures “Agric. Biol. Chem. 41, 1701-1706 (1977), Arch. Biochem. Biophys. 200, 156-164 (1980)”.\nas §2\nPyruvic acid or 2-ketoglutaric acid 14 mM\nas §3, §4, §5, §6, §7"}, "[3]": {"target": "T1, ω-Amino Acid: Pyruvic Acid Transaminase (Pseudomonas putida, UniProt P28269)", "T1 sequence (P28269 1-449)": "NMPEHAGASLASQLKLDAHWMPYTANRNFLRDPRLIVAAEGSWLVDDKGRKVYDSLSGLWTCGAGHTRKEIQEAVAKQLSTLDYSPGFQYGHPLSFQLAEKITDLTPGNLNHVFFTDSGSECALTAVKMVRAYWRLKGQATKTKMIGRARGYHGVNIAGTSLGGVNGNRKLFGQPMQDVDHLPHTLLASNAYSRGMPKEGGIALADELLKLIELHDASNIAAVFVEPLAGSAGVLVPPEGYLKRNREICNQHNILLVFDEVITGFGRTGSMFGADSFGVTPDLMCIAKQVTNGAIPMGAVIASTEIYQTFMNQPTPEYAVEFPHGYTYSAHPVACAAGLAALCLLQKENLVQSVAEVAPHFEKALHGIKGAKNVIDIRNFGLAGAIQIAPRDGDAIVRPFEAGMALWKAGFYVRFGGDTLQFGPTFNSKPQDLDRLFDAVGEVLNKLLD", "settings": "amino group receptor pyruvic acid; values from the literature; cited from earlier work"}, "[4]": {"tested_on": "4-Aminobutylic Acid: 2-Ketoglutaric Acid Transaminase", "settings": "amino group receptor 2-ketoglutaric acid; values from the literature; cited from earlier work"}, "[5]": {"settings": "amino group receptor 2-ketoglutaric acid 14 mM"}, "[6]": {"settings": "amino group receptor pyruvic acid 14 mM"}}, "note": "Entries after “also recorded” stand apart in the source; their conditions may differ.", "data": [{"molecule": "NCCC(=O)O", "note": "[β-alanine]", "values": [{"measurement": "Relative Activity (%)", "setting": "[1]", "result": 0, "unit": "%"}, {"measurement": "Amino group transfer activity as amino donor (in words)", "setting": "[2]", "result": "substantially inactive"}, {"measurement": "Amino group transfer activity as amino donor (in words)", "setting": "[2]; listed as Valanine", "result": "no activity"}, {"measurement": "Relative Activity (%)", "setting": "[2]", "result": 0, "unit": "%"}, {"measurement": "Reactivity as amino donor (in words)", "setting": "MTA (present invention)", "result": "not reactive"}, {"measurement": "Relative activity, Enzyme A", "setting": "MTA (present invention); [5]", "result": 0}, {"measurement": "Relative activity, Enzyme A", "setting": "MTA (present invention); [6]", "result": 0}, {"measurement": "Relative activity, Enzyme B", "setting": "[3]", "result": 100}, {"measurement": "Relative activity, Enzyme C", "setting": "[4]", "result": 0}]}, {"molecule": "NCCS(=O)(=O)O", "note": "[Taurine]", "values": [{"measurement": "Amino group transfer activity as amino donor (in words)", "setting": "[2]", "result": "no activity; also recorded: substantially inactive"}, {"measurement": "Relative Activity (%)", "setting": "[2]", "result": 0, "unit": "%"}, {"measurement": "Reactivity as amino donor (in words)", "setting": "MTA (present invention)", "result": "not reactive"}, {"measurement": "Relative activity, Enzyme A", "setting": "MTA (present invention); [5]", "result": 0}, {"measurement": "Relative activity, Enzyme A", "setting": "MTA (present invention); [6]", "result": 0}, {"measurement": "Relative activity, Enzyme B", "setting": "[3]", "result": 132}, {"measurement": "Relative activity, Enzyme C", "setting": "[4]", "result": 8}]}]}
